Earlier results on one substance are cited in US20190167649A1, “TOPICAL RAPAMYCIN THERAPY” (THE BOARD OF REGENTS OF THE UNIVERSITY OF TEXAS SYSTEM, priority 2016, published 2019).

Take Rapamycin: the “solubility in organic solvents” value (benzyl alcohol, chloroform, acetone, and acetonitrile) is listed as “freely soluble”. Besides, the solubility in water (water) was 2.6 µg/mL.
